Data taken from patent US10344025B2, “GLS1 inhibitors for treating disease” (Board of Regents, The University of Texas System, priority 2014, dated 2019).

How the values were obtained:
A549 cells = assay: Proliferation Assay (A549 viability, Cell Titer Fluor, 72 hours); format: cell-based; settings: Homo sapiens, A549, 72 h
Procedure: A549 cells were routinely maintained in RPMI 1640 media (Gibco catalog number 11875-093) supplemented with 10% dialyzed fetal bovine serum using a humidified incubator (37° C., 5% CO2 and ambient O2). In preparation for the viability assay, cells were inoculated into 384-well black CulturPlates (Perkin Elmer) at a density of 1000 cells/well in a volume of 40 uL. Following a 24-hour incubation at 37° C., 5% CO2 and ambient O2, cells were treated with compound (10 uL) in a final DMSO concentration of 0.5% (v/v). The microplates were then incubated for 72 hours (37° C., 5% CO2 and ambient O2). Cell Titer Fluor (Promega) was subsequently added (10 uL of 6× reagent) and mixed for 15 minutes at room temperature. The plates were then incubated for 30 minutes (37° C., 5% CO2 and ambient O2) and fluorescence was subsequently read on the Perkin Elmer Envision plate reader. IC50 values were calculated using a four-parameter logistic curve fit.
Non-limiting examples include the following compounds and pharmaceutically acceptable salts thereof. […] “ND” indicates no data.

[1] = molecular target: purified recombinant human GAC (GLS1) (Homo sapiens (Human), UniProt O94925); assay: GLS1 Enzymatic Activity Assay (dual-coupled enzymatic assay, resorufin/Amplex UltraRed readout); format: biochemical;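 further: glutamate from GAC coupled via glutamate oxidase and peroxidase to resorufin, read as fluorescence (ex 530, em 590 nm) kinetically or at 20 min, four-parameter logistic IC50 fit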
Chain of purified recombinant human GAC (GLS1) (O94925 other isoform, or with tags, fused parts or gaps): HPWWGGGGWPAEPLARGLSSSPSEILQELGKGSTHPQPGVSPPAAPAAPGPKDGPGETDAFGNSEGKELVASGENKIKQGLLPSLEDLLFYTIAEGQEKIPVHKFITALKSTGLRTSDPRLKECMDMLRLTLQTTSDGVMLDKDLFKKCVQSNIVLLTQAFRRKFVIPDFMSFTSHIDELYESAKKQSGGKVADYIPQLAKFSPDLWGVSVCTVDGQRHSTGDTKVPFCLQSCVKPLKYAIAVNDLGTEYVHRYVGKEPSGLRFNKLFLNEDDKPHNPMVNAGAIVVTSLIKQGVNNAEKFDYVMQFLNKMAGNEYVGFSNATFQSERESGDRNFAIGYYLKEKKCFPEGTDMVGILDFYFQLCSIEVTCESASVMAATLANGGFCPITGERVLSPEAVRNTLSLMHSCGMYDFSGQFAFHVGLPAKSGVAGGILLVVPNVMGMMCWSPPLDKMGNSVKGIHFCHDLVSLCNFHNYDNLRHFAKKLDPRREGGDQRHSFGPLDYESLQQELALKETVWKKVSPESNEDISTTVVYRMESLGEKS

Compound	EC50 (A549 cells) [nM]	IC50 [1] [nM]
CNC(=O)c1cn(CC(F)CCc2ccc(NC(=O)Cc3cc(OC(C)C(F)(F)F)ccn3)nn2)nn1 (centres unmarked) [Example 266, 1-(2-fluoro-4-(6-(2-(4-((1,1,1-trifluoropropan-2-yl)oxy)pyridin-2-yl)acetamido)pyridazin-3-yl)butyl)-N-methyl-1H-1,2,3-triazole-4-carboxamide]	< 100	
CC(C)CNC(=O)c1nnc(CCCCn2cc(C(=O)NCc3cccc(OC(F)(F)F)c3)nn2)s1 [Example 44, N-(2-methylpropyl)-5-{4-[4-({[3-(trifluoromethoxy)phenyl]methyl}carbamoyl)-1H-1,2,3-triazol-1-yl]butyl}-1,3,4-thiadiazole-2-carboxamide]	100 to 500	
CNC(=O)c1cn(CCCCc2ccc(NC(=O)Cc3cc(Cl)ccn3)nn2)nn1 [Example 191, 1-(4-{6-[2-(4-chloropyridin-2-yl)acetamido]pyridazin-3-yl}butyl)-N-methyl-1H-1,2,3-triazole-4-carboxamide]	100 to 500	
COCCNC(=O)c1cn(CCCCc2ccc(NC(=O)Cc3cccc(OC(F)(F)F)c3)nn2)nn1 [Example 551, N-(2-methoxyethyl)-1-[4-(6-{2-[3-(trifluoromethoxy)phenyl]acetamido}pyridazin-3-yl)butyl]-1H-1,2,3-triazole-4-carboxamide]	100 to 500	
CNC(=O)c1cn(CCCCc2ccc(NC(=O)Cc3cc(C4CC4)ccn3)nn2)nn1 [Example 190, 1-(4-{6-[2-(4-cyclopropylpyridin-2-yl)acetamido]pyridazin-3-yl}butyl)-N-methyl-1H-1,2,3-triazole-4-carboxamide]	100 to 500	
CNC(=O)c1cn(CC(F)CCc2ccc(NC(=O)Cc3cc(-c4cccc(OC(F)(F)F)c4)ccn3)nn2)nn1 (centres unmarked) [Example 242, 1-(2-fluoro-4-(6-(2-(4-(3-(trifluoromethoxy)phenyl)pyridin-2-yl)acetamido)pyridazin-3-yl)butyl)-N-methyl-1H-1,2,3-triazole-4-carboxamide]	< 100	
O=C(Cc1cccc(OC(F)(F)F)c1)Nc1ccc(CCCCn2cc(C(=O)NCc3ccccn3)nn2)nn1 [Example 529, N-(pyridin-2-ylmethyl)-1-[4-(6-{2-[3-(trifluoromethoxy)phenyl]acetamido}pyridazin-3-yl)butyl]-1H-1,2,3-triazole-4-carboxamide]	< 100	
O=C(Cc1cccc(OC(F)(F)F)c1)Nc1cn(CCCCn2cc(C(=O)NCc3cc(OC(F)(F)F)ccc3F)nn2)nn1 [Example 333, N-{[2-fluoro-5-(trifluoromethoxy)phenyl]methyl}-1-[4-(4-{2-[3-(trifluoromethoxy)phenyl]acetamido}-1H-1,2,3-triazol-1-yl)butyl]-1H-1,2,3-triazole-4-carboxamide]		500 to 5000
O=C(Cc1cccnc1)Nc1cn(CCCCn2cc(C(=O)NCC3CCCC3)nn2)nn1 [Example 290, N-(cyclopentylmethyl)-1-(4-{4-[2-(pyridin-3-yl)acetamido]-1H-1,2,3-triazol-1-yl}butyl)-1H-1,2,3-triazole-4-carboxamide]		500 to 5000
O=C(CC1CC1)Nc1cn(CCCCn2cc(C(=O)NCC3CCCCC3)nn2)nn1 [Example 281, N-(cyclohexylmethyl)-1-{4-[4-(2-cyclopropylacetamido)-1H-1,2,3-triazol-1-yl]butyl}-1H-1,2,3-triazole-4-carboxamide]		500 to 5000
O=C(CC1CC1)Nc1cn(CCCCn2cc(C(=O)NCC3CCCC3)nn2)nn1 [Example 287, N-(cyclopentylmethyl)-1-{4-[4-(2-cyclopropylacetamido)-1H-1,2,3-triazol-1-yl]butyl}-1H-1,2,3-triazole-4-carboxamide]		500 to 5000
O=C(NCc1ccccn1)c1cn(CCCCc2nnc(C(=O)NCC3CC3)s2)nn1 [Example 68, N-(cyclopropylmethyl)-5-(4-{4-[(pyridin-2-ylmethyl)carbamoyl]-1H-1,2,3-triazol-1-yl}butyl)-1,3,4-thiadiazole-2-carboxamide]		500 to 5000
O=C(CN1CCC(F)(F)CC1)Nc1cn(CCCCn2cc(C(=O)NCc3ncccc3F)nn2)nn1 [Example 361, 1-(4-{4-[2-(4,4-difluoropiperidin-1-yl)acetamido]-1H-1,2,3-triazol-1-yl}butyl)-N-[(3-fluoropyridin-2-yl)methyl]-1H-1,2,3-triazole-4-carboxamide]		500 to 5000

More lines, now with the values ahead:

EC50 (A549 cells) [nM]	IC50 [1] [nM]	Compound
	500 to 5000	CCC(=O)NCc1cn(CCCCn2cc(C(=O)NCc3cccc(OC(F)(F)F)c3)nn2)nn1 [Example 58, 1-(4-(4-(propionamidomethyl)-1H-1,2,3-triazol-1-yl)butyl)-N-(3-(trifluoromethoxy)benzyl)-1H-1,2,3-triazole-4-carboxamide]
	500 to 5000	O=C(Cc1ccccn1)Nc1cn(CCCCn2cc(C(=O)NCC3CC3)nn2)nn1 [Example 302, N-(cyclopropylmethyl)-1-(4-{4-[2-(pyridin-2-yl)acetamido]-1H-1,2,3-triazol-1-yl}butyl)-1H-1,2,3-triazole-4-carboxamide]
	500 to 5000	O=C(NCc1ccccn1)c1cn(CCCCc2nnc(C(=O)NCc3ccccn3)s2)nn1 [Example 66, N-(pyridin-2-ylmethyl)-5-(4-{4-[(pyridin-2-ylmethyl)carbamoyl)-1H-1,2,3-triazol-1-yl}butyl)-1,3,4-thiadiazole-2-carboxamide]
	500 to 5000	O=C(Cc1ccccn1)Nc1cn(CCCCn2cc(C(=O)NCC3CCCC3)nn2)nn1 [Example 291, N-(cyclopentylmethyl)-1-(4-{4-[2-(pyridin-2-yl)acetamido]-1H-1,2,3-triazol-1-yl}butyl)-1H-1,2,3-triazole-4-carboxamide]
	500 to 5000	Cc1ccc(CNC(=O)c2cn(CCCCn3cc(NC(=O)CN4CC(F)C4)nn3)nn2)cn1 [Example 348, 1-(4-{4-[2-(3-fluoroazetidin-1-yl)acetamido]-1H-1,2,3-triazol-1-yl}butyl)-N-[(6-methylpyridin-3-yl)methyl]-1H-1,2,3-triazole-4-carboxamide]
	100 to 500	CC(C)NC(=O)c1cn(CCCCc2nnc(NC(=O)Cc3cccc(OC(F)(F)F)c3)s2)nn1 [Example 10, N-(propan-2-yl)-1-[4-(5-{2-[3-(trifluoromethoxy)phenyl]acetamido}-1,3,4-thiadiazol-2-yl)butyl]-1H-1,2,3-triazole-4-carboxamide]
	500 to 5000	O=C(NCC1CC1)c1cn(CCCCc2nnc(C(=O)NCc3ccccn3)s2)nn1 [Example 69, 5-(4-{4-[(cyclopropylmethyl)carbamoyl]-1H-1,2,3-triazol-1-yl}butyl)-N-(pyridin-2-ylmethyl)-1,3,4-thiadiazole-2-carboxamide]
	500 to 5000	CC(C)(C)OC(=O)N1CCC(Cn2cc(CCCCn3cc(C(=O)NCc4cccc(OC(F)(F)F)c4)nn3)nn2)CC1 [Example 53]
	500 to 5000	O=C(Cc1ccccn1)Nc1cn(CCCCn2cc(C(=O)NCc3ccccn3)nn2)nn1 [Example 297, 1-[4-[4-[[2-(2-pyridyl)acetyl]amino]triazol-1-yl]butyl]-N-(2-pyridylmethyl)triazole-4-carboxamide]
	500 to 5000	O=C(CC1CCCC1)Nc1cn(CCCCn2cc(C(=O)NCC3CCCCC3)nn2)nn1 [Example 282, N-(cyclohexylmethyl)-1-{4-[4-(2-cyclopentylacetamido)-1H-1,2,3-triazol-1-yl]butyl}-1H-1,2,3-triazole-4-carboxamide]
	500 to 5000	Cc1ccc(CNC(=O)c2cn(CCCCn3cc(NC(=O)CN4CCC(F)(F)C4)nn3)nn2)cn1 [Example 354, 1-(4-{4-[2-(3,3-difluoropyrrolidin-1-yl)acetamido]-1H-1,2,3-triazol-1-yl}butyl)-N-[(6-methylpyridin-3-yl)methyl]-1H-1,2,3-triazole-4-carboxamide]
	500 to 5000	CS(=O)(=O)NCc1cn(CCCCn2cc(C(=O)NCc3cccc(OC(F)(F)F)c3)nn2)nn1 [Example 9, 1-(4-(4-(Methylsulfonamidomethyl)-1H-1,2,3-triazol-1-yl)butyl)-N-(3-(trifluoromethoxy)benzyl)-1H-1,2,3-triazole-4-carboxamide]
	100 to 500	Cc1ccc(CNC(=O)c2nnc(CCCCn3cc(C(=O)NCc4ccccn4)nn3)s2)cn1 [Example 67, N-[(6-methylpyridin-3-yl)methyl]-5(4-{4-[(pyridin-2-ylmethyl)carbamoyl]-1H-1,2,3-triazol-1-yl}butyl)-1,3,4-thiadiazole-2-carboxamide]
	500 to 5000	CC(C)CCNCc1cn(CCCCn2cc(C(=O)NCc3cccc(OC(F)(F)F)c3)nn2)nn1 [Example 57, 1-(4-(4-((isopentylamino)methyl)-1H-1,2,3-triazol-1-yl)butyl)-N-(3-(trifluoromethoxy)benzyl)-1H-1,2,3-triazole-4-carboxamide]
	100 to 500	CC(C)(C)OC(=O)N1CCC(Cn2cc(CCCCn3cc(C(=O)NCc4cccc(OC(F)(F)F)c4)nn3)nn2)CC1 [Example 8, Tert-butyl 4-((4-(4-(4-(3-(trifluoromethoxy)benzylcarbamoyl)-1H-1,2,3-triazol-1-yl)butyl)-1H-1,2,3-triazol-1-yl)methyl)piperidine-1-carboxylate]
	100 to 500	Cc1ccc(CNC(=O)c2cn(CCC(F)Cn3cc(NC(=O)CN4CC(F)C4)nn3)nn2)cn1 (centres unmarked) [Example 374, 1-(3-fluoro-4-{4-[2-(3-fluoroazetidin-1-yl)acetamido]-1H-1,2,3-triazol-1-yl}butyl)-N-[(6-methylpyridin-3-yl)methyl]-1H-1,2,3-triazole-4-carboxamide]
